Assay results reported in patent publication US5110976A, “Insecticidal composition comprising more than one active ingredient” (priority 1985, dated 1992).

Columns and labels:
Aphidinus matricariae = assay: Residual contact test on adults (Table 25); type: in vivo, adult females
Experimental: Residual contact test on adults of Aphidinus matricariae. Adults of A. matricariae are exposed to residues of the active ingredients freshly applied on glass plates forming cages, then the survivors are counted.
Treatment: test product and control treated with water.
Replicates: at least 3. Plot size (net): 1 cage.
Parasites of known age (24 hours) are used. […]
10 females of A. matricariae are introduced into each cage and supplied with honey as food. The number of females surviving exposure is determined after 1, 5 and 24 hours, in independent runs. Total number of survivors is calculate for each cage.

Myzus persicae = assay: 5 EC formulations on aphid-infected bean plants (Table 22); type: in vivo, green peach aphids (Myzus persicae)
Experimental: 15 bean plants infected with green peach aphids (Myzus persicae) at 6 days' age are cultivated in each pot. At 12 days' age the strongly and uniformly infected plants are selected and sprayed to run-off with emulsions freshly prepared from the formulation according to Example 42. Treatments are carried out with three doses (active ingredient 2.5, 5 and 10 ppm) and four parallels are used (one pot per parallel). The second, fourth and eighth day after treatment the aphids are swept down from the plants to a white paper with a fine brush and the live insects are counted.

Acanthoscelides obtectus [1] = assay: 5 EC formulations sprayed on glass plates (Table 21); type: in vivo, bean weevil (Acanthoscelides obtectus), imagos; details: 5 EC formulation, 24 hours
Experimental: The 5 EC formulations prepared according to Example 42 are diluted 50x, 100x, 200x, 400x, 800x and 1600x with water and 0.5 ml doses are sprayed onto glass plates. After drying 10 L. decemlineata imagos are placed on each glass plate and the insects are covered with Petri-dishes. The tests are carried out by using 6 doses and 3 parallels for each dose. The killed insects are counted after 48 hours.
Glass plates are sprayed with 5 EC formulations prepared according to Example 42 in an analogous manner to Example 52. After drying 10 bean weevil (Acanthoscelides obtectus) imagos are placed on each plate and the insects are covered with Petri-dishes. The killed insects are counted after 24 hours. The test is carried out with 6 doses by using 3 parallels for each dose.

Acanthoscelides obtectus [2] = assay: Impregnated filter paper disc contact test, mortality (Table 1); type: in vivo, bean weevil (Acanthoscelides obtectus), imago; details: Acanthoscelides obtectus, 24 hours, Abbot corrected
Experimental: (§1) The stereoisomers are dissolved in a 1:2 mixture of mineral oil and acetone and filter paper discs (Whatman No. 1., diameter 9 cm) are impregnated with the corresponding dosage of the solution of the active ingredient. The acetone is allowed to evaporate and the insects are examined on filter paper discs placed into Petri-dishes. Three parallels are used for each dose and 15 animals are placed in each Petri-dish. Mortality rate is determined after 24 hours. The corrected mortality % data are calculated by means of the Abbot formula.

T. confusum = assay: Contact test with piperonyl butoxide (Table 17); type: in vivo, flour-beetle (T. confusum), imagos; details: for mortality at 25 µg/disc / mortality at 50 µg/disc / mortality at 100 µg/disc / mortality at 200 µg/disc / mortality at 400 µg/disc: Tribolium confusum, 24 h, PBO, where added, 0.5 mg/disc; for mortality at 25 µg/disc: 0.025 mg/disc; for mortality at 50 µg/disc: 0.05 mg/disc; for mortality at 100 µg/disc: 0.1 mg/disc; for mortality at 200 µg/disc: 0.2 mg/disc; for mortality at 400 µg/disc: 0.4 mg/disc
Experimental: The active ingredient is dissolved in a 1:2 mixture of oil and acetone; filter paper discs (Whatman No. 1, diameter 9 cm) are impregnated with the solutions of the corresponding stereoisomers and enantiomer-pairs, respectively. The acetone is allowed to evaporate, whereupon the insects are exposed to filter papers discs placed in Petri-dishes. Three parallels are used on each dose and 15 insects are placed into each Petri-dish. The percental mortality is determined after 24 hours. The corrected percent mortality is calculated by means of the Abbot Formula.
Imagos of flour-beetle (T. confusum) are treated in an analogous manner to Example 41. As synergist piperonyl butoxide is used in a dose of 0.5 mg/disc.

tribolium confusum = assay: Impregnated filter paper disc contact test, mortality (Table 1); type: in vivo, flour-beetle (tribolium confusum), imago; details: Tribolium confusum, 24 hours, Abbot corrected
Experimental: as §1

A. matricariae = assay: Residual contact test on adults (Table 4); type: in vivo, Aphidinus matricariae, adult females
Experimental: Adults of A. matricariae are exposed to residues of the active ingredients freshly applied on glass plates forming cages then the survivors are counted.
Treatments: test products(s) and control treated with water.
Replicates: at least 3. Plot size (net) 1 cage.
Parasites of known age 24 hours are used.
The products are applied at 5-1 ppm concentration, to each of the glass plates.
10 females of A. matricariae are introduced into each cage and supplied with honey as food. The number of females surviving exposure is determined after 1.5 and 24 hours, in independent runs. Total number of survivors is calculated for each cage.

[3] = tested on: Leptinotarsa decemlineara larvae; assay: Paralysis of larvae on sprayed tomato plants (Table 23); type: in vivo, L3 stage larvae; details: 6 hours
Experimental: Tomato plants pre-cultivated in pots are sprayed with a suspension of the active ingredient formed with a mixture of acetone and water. The treated plants are placed into isolators and infected with L3 stage Leptinotarsa decemlineara larvae. The percental ratio of paralyzed larvae which fall down from the plants is determined after 6 hours.

Colorado potato beetle = assay: Plot field test on Colorado potato beetle (Table 24); type: in vivo, adults; details: 10 g active ingredients/ha
Experimental: The treatments are performed on a 25 m^2 plot strongly infected with Colorado potato beetle. 10 plants per plot are specially marked on which the Colorado potato beetles were counted previously. (During assessment of the number of pests only adults of the second Summer generation are taken into consideration, because at the point of time of the test the ratio of larvae of stages L3 and L4 is negligible). Treatment is accomplished on 25 M^2 plots at a dose of 10 g of active ingredients/ha with aqueous suspensions of the formulations according to Example 37 and three parallels are used. The test is evaluated by counting the leave insects on the marked plants. The average values of three parallel tests are disclosed in Table 24.

[4] = 2.5 ppm, 2 days after treatment (control 1850)
[5] = 2.5 ppm, 4 days after treatment (control 2780)
[6] = 2.5 ppm, 8 days after treatment (control 4120)
[7] = 5.0 ppm, 2 days after treatment (control 1850)
[8] = 5.0 ppm, 4 days after treatment (control 2780)
[9] = 5.0 ppm, 8 days after treatment (control 4120)
[10] = 10.0 ppm, 2 days after treatment (control 1850)
[11] = 10.0 ppm, 4 days after treatment (control 2780)
[12] = 10.0 ppm, 8 days after treatment (control 4120)
[13] = 0 days after treatment (control 211)
[14] = 1 day after treatment (control 206)
[15] = 3 days after treatment (control 179)
[16] = 9 days after treatment (control 183)

Compound: CC1(C)[C@H](C(=O)O[C@H](C#N)c2cccc(Oc3ccccc3)c2)[C@@H]1C=C(Cl)Cl (relative stereo) [Ia]
- Mortality % (Aphidinus matricariae; 1 ppm, 1h): 100%
- Mortality % (Aphidinus matricariae; 1 ppm, 5h): 100%
- Mortality % (Aphidinus matricariae; 1 ppm, 24h): 96%
- Mortality % (Aphidinus matricariae; 5 ppm, 1h): 100%
- Average number of aphids per pot (Myzus persicae; [4]): 44
- Average number of aphids per pot (Myzus persicae; [5]): 83
- Average number of aphids per pot (Myzus persicae; [6]): 245
- Average number of aphids per pot (Myzus persicae; [7]): 22
- Average number of aphids per pot (Myzus persicae; [8]): 29
- Average number of aphids per pot (Myzus persicae; [9]): 90
- Average number of aphids per pot (Myzus persicae; [10]): 8
- Average number of aphids per pot (Myzus persicae; [11]): 17
- Average number of aphids per pot (Myzus persicae; [12]): 30
- Mortality % (Acanthoscelides obtectus [1]; dilution 50x): 70%
- Mortality % (Acanthoscelides obtectus [1]; dilution 100x): 50%
- Mortality % (Acanthoscelides obtectus [1]; dilution 200x): 33%
- Mortality % (Acanthoscelides obtectus [1]; dilution 400x): 27%
- Mortality % (Acanthoscelides obtectus [1]; dilution 800x): 13%
- Mortality % (Acanthoscelides obtectus [1]; dilution 1600x): 0%
- mortality at 20 µg/disc (Acanthoscelides obtectus [2]; 0.02 mg/disc): 10%
- mortality at 70 µg/disc (Acanthoscelides obtectus [2]; 0.07 mg/disc): 37%
- mortality at 220 µg/disc (Acanthoscelides obtectus [2]; 0.22 mg/disc): 63%
- mortality at 670 µg/disc (Acanthoscelides obtectus [2]; 0.67 mg/disc): 100%
- mortality at 2000 µg/disc (Acanthoscelides obtectus [2]; 2.0 mg/disc): 100%
- mortality at 6000 µg/disc (Acanthoscelides obtectus [2]; 6.0 mg/disc): 100%
- mortality at 25 µg/disc (T. confusum): 0%
- mortality at 50 µg/disc (T. confusum): 0%
- mortality at 100 µg/disc (T. confusum): 12%
- mortality at 200 µg/disc (T. confusum): 53%
- mortality at 400 µg/disc (T. confusum): 96%
- mortality at 20 µg/disc (tribolium confusum; 0.02 mg/disc): 0%
- mortality at 70 µg/disc (tribolium confusum; 0.07 mg/disc): 18%
- mortality at 220 µg/disc (tribolium confusum; 0.22 mg/disc): 51%
- mortality at 670 µg/disc (tribolium confusum; 0.67 mg/disc): 100%
- mortality at 2000 µg/disc (tribolium confusum; 2.0 mg/disc): 100%
- mortality at 6000 µg/disc (tribolium confusum; 6.0 mg/disc): 100%
- Mortality % (A. matricariae; 1 ppm, 1h): 100%
- Mortality % (A. matricariae; 1 ppm, 5h): 100%
- Mortality % (A. matricariae; 1 ppm, 24h): 96%
- Mortality % (A. matricariae; 5 ppm, 1h): 100%
- % ratio of paralyzed larvae ([3]; 8 ppm): 18%
- % ratio of paralyzed larvae ([3]; 40 ppm): 46%
- % ratio of paralyzed larvae ([3]; 200 ppm): 100%
- % ratio of paralyzed larvae ([3]; 1000 ppm): 100%
- Average number of live insects/10 plants (Colorado potato beetle; [13]): 171
- Average number of live insects/10 plants (Colorado potato beetle; [14]): 11
- Average number of live insects/10 plants (Colorado potato beetle; [15]): 9
- Average number of live insects/10 plants (Colorado potato beetle; [16]): 25

Compound: CC1(C)C(C=C(Cl)Cl)C1C(=O)OC(C#N)c1cccc(Oc2ccccc2)c1 (stereo not drawn) [Ia:Ib = 4:6]
- Mortality % (Aphidinus matricariae; 1 ppm, 1h): 50%
- Mortality % (Aphidinus matricariae; 1 ppm, 5h): 90%
- Mortality % (Aphidinus matricariae; 1 ppm, 24h): 63%
- Mortality % (Aphidinus matricariae; 5 ppm, 1h): 100%
- Average number of aphids per pot (Myzus persicae; [4]): 38
- Average number of aphids per pot (Myzus persicae; [5]): 71
- Average number of aphids per pot (Myzus persicae; [6]): 251
- Average number of aphids per pot (Myzus persicae; [7]): 21
- Average number of aphids per pot (Myzus persicae; [8]): 32
- Average number of aphids per pot (Myzus persicae; [9]): 82
- Average number of aphids per pot (Myzus persicae; [10]): 10
- Average number of aphids per pot (Myzus persicae; [11]): 11
- Average number of aphids per pot (Myzus persicae; [12]): 21
- Mortality % (Acanthoscelides obtectus [1]; dilution 50x, 1440 min): 70%
- Mortality % (Acanthoscelides obtectus [1]; dilution 100x, 1440 min): 53%
- Mortality % (Acanthoscelides obtectus [1]; dilution 200x, 1440 min): 37%
- Mortality % (Acanthoscelides obtectus [1]; dilution 400x, 1440 min): 30%
- Mortality % (Acanthoscelides obtectus [1]; dilution 800x, 1440 min): 17%
- Mortality % (Acanthoscelides obtectus [1]; dilution 1600x, 1440 min): 10%
- synergizability with piperonyl butoxide (T. confusum; Ia:Ib=4:6 mixture versus Ia): can be synergized to a larger extent than enantiomer Ia
- mortality at 25 µg/disc (T. confusum): 0%
- mortality at 50 µg/disc (T. confusum): 18%
- mortality at 100 µg/disc (T. confusum): 57%
- mortality at 200 µg/disc (T. confusum): 90%
- mortality at 400 µg/disc (T. confusum): 100%
- % ratio of paralyzed larvae ([3]; 8 ppm): 60%
- % ratio of paralyzed larvae ([3]; 40 ppm): 75%
- % ratio of paralyzed larvae ([3]; 200 ppm): 100%
- % ratio of paralyzed larvae ([3]; 1000 ppm): 100%
- Average number of live insects/10 plants (Colorado potato beetle; [13]): 213
- Average number of live insects/10 plants (Colorado potato beetle; [14]): 8
- Average number of live insects/10 plants (Colorado potato beetle; [15]): 4
- Average number of live insects/10 plants (Colorado potato beetle; [16]): 22
